The OPERA property sets (Mansouri et al. 2018)

settings: not given

In order of rising boiling point:
1. FC(Cl)C(F)(F)F (stereo unspecified)  -12 °C
2. FC(F)(F)C(F)(F)I  13 °C
3. CNNC  81 °C
4. CCc1ccco1  92 °C
5. CC1(C)CCC(C)(C)O1  112 °C
6. CCC(C)C(CC)CC (stereo unspecified)  140 °C
7. C=CCCCCCC=C  142 °C
8. CCC(C)CCC(C)(C)C (stereo unspecified)  151 °C
9. BrCOCBr  154 °C
10. CC(C)CN=C=S  160 °C
11. O=C(Cl)CCCCl  174 °C
12. CCOC(=O)C(C)(C)C(C)=O  182 °C
13. CCCCCC(=O)CCC  188 °C
14. CC(O)CC(C)(C)O (stereo unspecified)  198 °C
15. Cc1cccc(O)c1  202 °C
16. C[Si](Cl)(Cl)c1ccccc1  206 °C
17. CCCCCCCC(=O)OCC  208 °C
18. CCOC(=O)c1ccc(F)cc1  210 °C
19. CCCCCCCCCCCC  216 °C
20. NCCCCCCCCN  225 °C
21. CCC1CCc2ccccc2C1 (stereo unspecified)  235 °C
22. ClCc1ccccc1CCl  240 °C
23. Cc1ccc([N+](=O)[O-])cc1C  251 °C
24. COc1cccc(CO)c1  252 °C
25. Cc1cc(Br)cc([N+](=O)[O-])c1  270 °C
26. O=C1CCc2ccccc2O1  272 °C
27. CCCCCCCCCCC(=O)O  280 °C
28. O=S1(=O)CCCC1  285 °C
29. CCCCCCCCCCCCCCCC(C)C  311 °C
30. O=[N+]([O-])c1cccc([N+](=O)[O-])c1Cl  315 °C

In order of rising melting point:
1. CCCC  -138 °C
2. C=CCCCC=C  -129 °C
3. CC(O)CC(C)(C)O (stereo unspecified)  -50 °C
4. CCCCCCCC(=O)OCC  -43.1 °C
5. CCC1CCc2ccccc2C1 (stereo unspecified)  -42.8 °C
6. BrCOCBr  -34 °C
7. CCCCCCCCCCCC  -9.6 °C
8. CNNC  -9 °C
9. CCCCCCCCCCCCCCCC(C)C  5.7 °C
10. Cc1cccc(O)c1  11.8 °C
11. CCCCCc1ccc(C)cc1O  24 °C
12. O=C1CCc2ccccc2O1  25 °C
13. CCOC(=O)c1ccc(F)cc1  26 °C
14. O=S1(=O)CCCC1  27.6 °C
15. CCCCCCCCCCC(=O)O  28.6 °C
16. Cc1ccc([N+](=O)[O-])cc1C  30.5 °C
17. NCCCCCCCCN  52 °C
18. ClCc1ccccc1CCl  55 °C
19. C=C[C@H]1CNCC[C@H]1CCC(=O)c1ccnc2ccc(OC)cc12  60 °C
20. OCCOc1ccc2ccccc2c1  76.7 °C
21. COC(=O)c1c(C(F)F)nc(C(F)(F)F)c(C2=NCCS2)c1CC(C)C  78 °C
22. Cc1cc(Br)cc([N+](=O)[O-])c1  83 °C
23. O=[N+]([O-])c1cccc([N+](=O)[O-])c1Cl  88 °C
24. Clc1cccc2cccc(Cl)c12  89 °C
25. CC(=O)NO  90.5 °C
26. SC(c1ccccc1)(c1ccccc1)c1ccccc1  105 °C
27. Cl.Nc1ccc(N=Nc2ccccc2)c(N)c1  118 °C
28. CCC(=O)O[C@H]1CC[C@H]2[C@@H]3CCC4=CC(=O)CC[C@]4(C)[C@H]3CC[C@]12C  120 °C
29. CCN(CC)C(=O)[C@@H]1C=C2c3cccc4[nH]c(Br)c(c34)C[C@H]2N(C)C1  124 °C
30. O=C(O)C(c1ccccc1)c1ccccc1  147 °C
31. Cn1c(=O)c2c(ncn2CCOC(=O)c2cccnc2)n(C)c1=O  152 °C
32. CCOC(=O)C(c1c(O)c2ccccc2oc1=O)c1c(O)c2ccccc2oc1=O  154 °C
33. O=c1[nH]cnc2c1ncn2[C@H]1CC[C@@H](CO)O1  162 °C
34. Nc1cc(Cl)c(O)c(Cl)c1  168 °C
35. CCN1CCN(C(=O)N[C@@H](C(=O)N[C@@H]2C(=O)N3C(C(=O)O)=C(CSc4nnnn4C)CS[C@H]23)c2ccc(O)cc2)C(=O)C1=O  169 °C
36. Nc1ccc(S(=O)(=O)Nc2ccc(Cl)nn2)cc1  187 °C
37. O=[N+]([O-])c1ccccc1SSc1ccccc1[N+](=O)[O-]  196 °C
38. CCOc1ccc2c3c1O[C@H]1[C@@H](O)C=C[C@H]4[C@@H](C2)N(C)CC[C@@]341  200 °C
39. Cc1cccc(C)c1NC(=O)CN(CC(=O)O)CC(=O)O  202 °C
40. Oc1ccc2c(c1)[C@@]13CCCC[C@H]1[C@@H](C2)NCC3  271 °C
41. O=C(O)c1ccc2c(c1)C(=O)c1ccccc1-2  341 °C

Work on `CCCCCCCCCCCC` yielded a log10 biodegradation half-life (days) of 1.

In order of rising log10 vapour pressure (mmHg):
1. COC(=O)Nc1nc2ccccc2[nH]1  -9.12
2. COC(=O)c1c(C(F)F)nc(C(F)(F)F)c(C2=NCCS2)c1CC(C)C  -5.65
3. Cc1ccc([N+](=O)[O-])cc1C  -2.44
4. CCCCCCCCCCC(=O)O  -2.42
5. CC(O)CC(C)(C)O (stereo unspecified)  -1.89
6. C=CC(=O)OCCCCCCCC  -0.994
7. Cc1cccc(O)c1  -0.959
8. CCCCCCCCCCCC  -0.87
9. C[Si](Cl)(Cl)c1ccccc1  -0.312
10. CNNC  1.84
11. CCCC  3.26
12. FC(Cl)C(F)(F)F (stereo unspecified)  3.46

In the case of `CCCCCCCCCCCC`, the ready biodegradability is reported as “readily biodegradable”.
In the case of `CCCC`, the ready biodegradability is reported as “readily biodegradable”.
With `CC(O)CC(C)(C)O` (stereo unspecified) the ready biodegradability was “readily biodegradable”.
With `NCCCCCCCCN` the ready biodegradability was “readily biodegradable”.
In the case of `COC(=O)c1ccc2cc(C(=O)OC)ccc2c1`, the ready biodegradability is reported as “not readily biodegradable”.
For `Cc1cccc(O)c1`, the ready biodegradability was “readily biodegradable”.
With `C=CC(=O)OCCCCCCCC` the ready biodegradability was “readily biodegradable”.
In the case of `O=S1(=O)CCCC1`, the ready biodegradability is reported as “not readily biodegradable”.
For `O=C1NC(=O)C2CC=CCC12` (stereo unspecified), the ready biodegradability was “not readily biodegradable”.
For `CCCCCCCCCCC(=O)O`, the ready biodegradability was “readily biodegradable”.
In the case of `COC(=O)Nc1nc2ccccc2[nH]1`, the ready biodegradability is reported as “not readily biodegradable”.

With `CCCC` the log10 Koa was 1.53.

For `Cc1cccc(O)c1`, the log10 Henry constant (atm·m³/mol) was -6.07.

In order of rising log10 Koc (L/kg):
1. COC(=O)Nc1nc2ccccc2[nH]1  2.35
2. CCCCCCCC(=O)OCC  3.02

same assay, conditions: fish

In order of falling log10 biotransformation half-life (days):
1. CC(=CC(C)C)CC(C)C  0.92
2. CCOP(=S)(OCC)ON=C(C#N)c1ccccc1  0.84
3. Cc1cc(C)c2ccccc2c1  0.51
4. CCCCCCCCCCCC  0.26
5. CC(C)(C)O  -1.13

In order of falling log10 BCF:
1. Brc1ccc(Oc2cc(Br)c(Br)c(Br)c2)cc1Br  6.43
2. Clc1cccc2cccc(Cl)c12  3.79
3. CCCCCCCCCCCC  2.38
4. O=S1(=O)CCCC1  0.85
5. CC(C)(C)O  0.7
6. COC(=O)Nc1nc2ccccc2[nH]1  0.4
7. CC(C)(O)C(Cl)(Cl)Cl  0.23
